Measured values published in patent publication US20250057832A1, “USE OF A CLASS OF 1,4-DIHYDRO-NAPHTHYRIDINE DERIVATIVES IN TREATMENT OF TUMORS” (NEURODAWN PHARMACEUTICAL CO., LTD., priority 2021, published 2025).

Experiments:
various tumor cells = assay: Vacuolation by S2, summary over tumor cells (FIG. 2); type: cell-based
Experimental: (§1) U87MG, T98G, U251, SK-N-SH, A-172 and HepG2 cells were adherently cultured in MEM+10% FBS+1% P/S medium and passaged at 1:3; CT26.WT cells were adherently cultured in RPMI-1640+10% FBS+1% P/S medium and passaged at 1:3; CHO-K1 was cultured adherently in Ham's F-12K+10% FBS+[…] medium and passaged at 1:3.
The cells used above were resuscitated and passaged twice stably. When the cell density reached above 85%, the cells were digested with 0.05% trypsin-EDTA for 3 minutes, resuspended with the culture medium, and plated into a 6-well plate at a certain density, with each well system being 2 mL. The cells were cultured for 24 hours, added with 2 μL of the above-prepared S2 solution (final DMSO concentration 0.1%) to each well according to the grouping, such that the S2 concentration in the cell culture system reached 30 μM.
After 6 hours of drug treatment, the plate was observed under a microscope with a 20× objective lens, and five fields of view were randomly selected for each well to take photos and record. […]

[1] = system: neural tumor cells and non-neural tumor systems; assay: Cell viability assay, summary over tumor cell lines (Example 2); type: cell-based; settings: neural and non-neural tumor cells of Table 3, 48 hours; read-out: IC50, range over tumor cell lines
Experimental: as §1
The above various cells were resuscitated and stably passaged twice. When the cell density reached above 85%, the cells were digested with 0.05% trypsin-EDTA for three minutes, resuspended, plated in a 96-well plate at the corresponding density, and cultured for 24 hours. The cells were treated with drugs at final concentrations of the culture system of 0.41 μM, 1.23 μM, 3.7 μM, 11.1 μM, 33.3 μM, and 100 μM. After 48 hours of drug treatment, cell viability was determined using CellCounting-Lite™ 2.0 kit. The plate was added with reagents at 100 µL/well according to the CellCounting-Lite™ 2.0 kit instructions, and shaken for 10 minutes. The luminescence value (LUM) was read on a multi-function plate reader, and the relative viability of the cells was calculated.
Relative viability of tumor cells V (%)=(LUM-LUMbackground)/(LUMnormal control−LUMbackground)×100%. LUMbackground was the background reading of the complete culture medium well added with the detection reagent. The half inhibitory concentration (IC50) was calculated using GraphPad Prism 8.0.1 statistical software.

CCOC(=O)C1=C(C)Nc2nc3c(c(N)c2C1c1ccccc1Cl)CC(C)(C)CC3 (centres unmarked) [Compound S2]
Induction of vacuolation (FIG. 2 legend) (various tumor cells): induced vacuolation | IC50 [1]: 4.7 to 14.3 µM
